The results in this text go back to a melting point compilation (Tetko et al.; mined from patent text by program, amines drawn as free bases though some values may be those of a salt).

For orientation: melting point means the temperature of the solid-liquid transition. For `CCCC(=O)CCCCCC(=O)N[C@@H](C)C(=O)OC`, the melting point fell in the range of 51 to 54 °C.

Regarding `C[C@@H](N)C(=O)N(O)C(=O)OC(C)(C)C`, the melting point fell in the range of 115 to 117 °C.

`COc1ccc(CN2CC(CO)CC2=O)cc1OC` (stereo not given) returned a melting point of 78 to 79 °C.

`COC1=C(OC)C(=O)C(CCC(C)CCC(=O)O)=C(C)C1=O` (stereo not given): the melting point was 58 to 61 °C.

With `COc1ccc(NC=O)cn1`, the melting point was 81 to 83 °C.

On to `Cn1cc(C(=O)O)c(=O)c2cc3cc(F)c(N4CCNC(c5ccco5)C4)c(F)c3nc21` (racemic), for which the melting point was 295 to 296 °C.

`Cc1nc2ccccc2n1Cc1ccc(C(=O)NC2CCN(C(=O)OC(C)(C)C)CC2)cc1`: the melting point was in the range of 77 to 79 °C.

Take `CCCc1nn(-c2ccc(C(F)(F)F)cn2)cc1CCCOc1cc(CC(=O)O)cc(OC)c1`: the melting point fell in the range of 139 to 140 °C.

As to `COc1cc2nc3n(c(=O)c2cc1OC)CS(=O)(=O)N3`, the melting point is more than 300 °C.

Compound `O=C(Cn1c(-c2ccc([N+](=O)[O-])cc2)ncc(NC(=O)OCc2ccccc2)c1=O)NC(Cc1ccccc1)C(=O)C(F)(F)F` (stereo not given) registered a melting point of 117 to 121 °C.

In turn, `COc1c(-c2cc3c(s2)C(O)CC(C)(C)C3)ccc2c(=O)c(C(=O)O)cn(C3CC3)c12` (stereo not given) had a melting point of 182 to 183 °C.

Consider `CN(C)C=NS(=O)(=O)c1nc2ccc(O)cc2s1`, for which the melting point fell in the range of 195 to 198 °C.

Take `CCCC(=O)CS(N)(=O)=O`: the melting point turned out to be 117 °C.

On to `CS(=O)(=O)Nc1ccc2ccccc2c1-c1c(P(c2ccccc2)c2ccccc2)ccc2ccccc12`, for which the melting point worked out at 109 °C.

The compound `Cc1cc(CCCCCOc2ccc(C3OC=CO3)cc2)on1` registered a melting point of 38 to 39 °C.

`O=C(c1cccs1)c1cnn2c(-c3cccc(-c4nnn(Cc5ccccn5)n4)c3)ccnc12` came in with a melting point of 184 °C.

For `O=C(NCCC(=O)N1CCCCC1)c1ccc(-c2ccc3nnn(Cc4ccc5ncccc5c4)c3n2)cc1F`, the melting point fell in the range of 109 to 111 °C.

In the case of `COC(=O)C#CC(=O)c1ccc(SC)cc1`, the melting point lay within 74 to 76 °C.

In turn, `O=c1c(-c2cccc(C(F)(F)F)c2)c[nH]n1-c1cccc(Cl)c1` gave a melting point of 182 to 184 °C.

With `C=CCOC(=O)c1c(C)nc2c(cnn2CCCC#N)c1N`, the melting point was determined as 86 °C.

Compound `CC(=O)c1cc(F)c(O)c(F)c1` gave a melting point of 141 to 143 °C.

Compound `C=CCNC(=S)C(OC)c1ccccn1` (stereo not given) displayed a melting point of 59.5 to 60 °C.

Turning to `COc1cc(COc2nn(-c3ccccc3)cc2/C=C/c2coc(C(C)C)n2)ccc1OCc1nc(-c2ccc(CC(=O)O)cc2)oc1C`, the melting point was in the range of 116 to 118 °C.

Regarding `COc1cccc(-c2cccc(C(N)=O)c2)c1`, the melting point lay in the range of 138 to 140 °C.

Compound `C[C@@H]1S[C@@H](C(=O)O)Cc2cc3c(cc2C1=O)OCO3` gave a melting point of 192 to 193 °C.

Take `Nc1ccn([C@H]2C=C[C@@H](O)C2)c(=O)n1` (racemic): the melting point lay in the range of 241 to 242 °C.

As for `CSCn1cc(F)c(N=CN(C)C)nc1=O`, the melting point was 132 to 136 °C.

In turn, `Cc1ccc(C(=O)n2c3c(c4cc(F)ccc42)CC(C(=O)O)CC3)cc1` (stereo not given) registered a melting point of 229 to 231 °C.

For `CCOC(=O)c1c(O)c2ccc(F)cc2c(=O)n1CC(C)C`, the melting point lay in the range of 104 to 105 °C.

`CCNC(C)Cc1ccc(O)cn1` (stereo not given) displayed a melting point of 75 to 79 °C.

The compound `COc1cc(C)c2c(c1)c1c(n2Cc2ccc(Cl)cc2)C(CC(=O)O)CCC1` (stereo not given) showed a melting point of 188 °C.

Compound `OC(COc1ccc(Cl)cc1)(Cn1cncn1)Cn1cncn1` came in with a melting point of 99 °C.

`CN(C(=O)CCCOc1ccc2nc3n(c(=O)c2c1)CS(=O)(=O)N3)C1CCCCC1` registered a melting point of more than 330 °C.

For the compound `Cc1[nH]n(-c2c(Cl)cc(C(F)(F)F)cc2Cl)c(=O)c1C=O`, the melting point is 195 to 197 °C.

In the case of `CC(C)c1cc(-c2ccc3c(c2)OCO3)[nH]c(=O)c1C#N`, the melting point lay within 266 to 268 °C.

For `CCOC(=O)c1nc(C2CC2)nc(NCc2ccccc2)c1Cl`, the melting point was in the range of 59 to 61 °C.

In turn, `O=C(Nc1ccc(F)cc1)N1CC=CCN1` returned a melting point of 100 to 101 °C.

Compound `O=c1oc2ccccc2n1CCCl` returned a melting point of 77 to 79 °C.

In the case of `Cc1ccccc1C1CCN(C(=O)CCC(=O)c2ccc3c(c2)CCN(C(=O)C(F)(F)F)CC3)CC1`, the melting point lay in the range of 130 to 131 °C.

For `Cc1ccccc1Oc1cccc(CCC(=O)O)c1O`, the melting point is 106 to 107 °C.

For the compound `CC(C)OC(=O)c1cn(-c2cccnc2)cn1`, the melting point fell in the range of 130 to 131 °C.

Take `Cc1oc(-c2ccccc2)nc1COc1ccc(CON=C2CC(C(=O)O)c3ccccc32)cc1` (stereo not given): the melting point lay within 148 to 149 °C.

Consider `CC(=O)CSc1nnnn1C`, for which the melting point came out at 31 °C.

Compound `CC(C)C1COCc2nc3c(N)nc4ccc(O)cc4c3n21` (stereo not given) displayed a melting point of 208 to 210 °C.

Compound `CCc1sc(N2C(=O)c3ccccc3C2=O)c(C(=O)c2ccc(Cl)cc2)c1C` showed a melting point of 115 to 117 °C.

Turning to `O=C1CC(c2cccc(-n3cncn3)c2)=Nc2ccc(C#Cc3ccc(F)cc3)cc2N1`, the melting point fell in the range of 217 to 218 °C.

Turning to `CCCc1c(C(=O)C(C)C)c2ccc(C(=O)OC)cc2n1Cc1ccccc1OC`, the melting point lay in the range of 103 to 105 °C.

On to `O=C(O)CCCC(=O)N1CCN(c2cc3c(cc2F)c(=O)c(C(=O)O)c2sccn23)CC1`, for which the melting point is 276 to 278 °C.

Consider `NC1=CC(=O)CC(c2ccsc2)C1` (stereo not given), for which the melting point lay within 142 to 143 °C.

Turning to `CCCC1=NN(c2cccnc2)C(=O)C1=CNc1ccccc1CC`, the melting point amounted to 144 °C.

Compound `CCCOC(=O)Nc1ccc(OCC2CC2(Cl)Cl)c(Cl)c1` (stereo not given) returned a melting point of 57 to 59 °C.

`OCc1ccc(C2=CCCCC2)cc1` registered a melting point of 70 to 71 °C.

`CCCCNC(=O)c1cnc2cccc(C)n2c1=O`: the melting point was 127 to 130 °C.

For the compound `c1ccc(OCCSCc2nnc(-c3ccc(OCCCN4CCC4)cc3)o2)cc1`, the melting point was 60 °C.

Compound `CS(=O)(=O)c1ccc(-c2cnn(-c3ccc(F)c(F)c3)c(=O)c2C2CCCCC2)cc1` registered a melting point of 80 to 83 °C.

In turn, `O=C(CSc1ccccc1)Nc1ccccc1C(=O)O` had a melting point of 166 to 167 °C.

Turning to `CC(=O)NC[C@H]1CN(c2ccc(C3=CCN(C(=O)OCc4ccccc4)CC3)cc2)C(=O)O1`, the melting point is 166 to 169 °C.

In turn, `CCOP(=O)(CCCN)OCC` yielded a melting point of 54 °C.

`CCOC(=O)C(O)(CC(=O)c1ccc(-c2ccccc2)cc1)C(=O)OCC`: the melting point was 88 to 88.3 °C.

`CC1(C(O)(C=Cc2ccc(Cl)cc2Cl)Cn2ccnc2)COCOC1` (stereo not given) returned a melting point of 142 to 144 °C.

In turn, `CCNC(=S)Nc1cc(Cl)ccc1C` registered a melting point of 120 to 122 °C.

`ClCCCCc1nnnn1C1CCCCC1` had a melting point of 50 to 51 °C.

With `O=C(Nc1cccc(S(=O)(=O)C(F)(F)F)c1)c1cnn2c(C(F)F)cc(-c3ccc(C(F)(F)F)cc3)nc12`, the melting point amounted to 207 °C.

`COc1ccc(NC(=O)c2ccc(C(C)(C)C#N)cc2)cc1` returned a melting point of 164 to 168 °C.

`CC(C)(C)NCC(O)COc1cccc2[nH]cc(Cl)c12` (stereo not given) gave a melting point of 95 to 97 °C.

On to `COC1=C(C(=O)c2ccc(OC)cc2)C(c2ccc(C(C)(C)C)cc2)N(c2nnc(C)s2)C1=O` (stereo not given), for which the melting point was in the range of 235 to 237 °C.

Consider `CCOC(=O)/C=C/c1cc(OCc2ccccc2)ccc1OCC`, for which the melting point lay in the range of 124 to 125 °C.

In turn, `NC(=O)c1ccc(F)c2c1CC([N+](=O)[O-])CO2` (stereo not given) showed a melting point of 184 to 186 °C.

Take `CCN(C(=O)C1CC1)c1cccc(-c2ccnc3c(C(=O)c4ccccc4)cnn23)c1`: the melting point was 153 to 155 °C.

Regarding `CNC(c1ccc(OC)cc1)c1csc(S(N)(=O)=O)c1` (stereo not given), the melting point was in the range of 155 to 156 °C.

For `CCCCOCCOc1ccc(-c2ccc3c(c2)C=C(C(=O)Nc2ccc(SCc4nncn4CCC)c(C)c2)CCN3CC(C)C)cc1`, the melting point fell in the range of 104 to 107 °C.

As to `COc1ccc(Oc2ccc(F)cc2)cc1C#CC(C)N(O)C(N)=O` (stereo not given), the melting point was 141 to 142 °C.

`C=C(C)[C@@H]1CC[C@]2(C(=O)O)CC[C@]3(C)[C@H](CC[C@@H]4[C@@]5(C)CC[C@H](OC(=O)[C@H]6C[C@@H](C(=O)O)C6(C)C)C(C)(C)[C@@H]5CC[C@]43C)[C@@H]12` came in with a melting point of 308 to 310 °C.

`O=C(O)c1ccc(Cl)c2c1[nH]c1ccccc12`: the melting point was 280 °C.

Take `CCN(CC)C(=O)Oc1cc(-c2ccncc2)nc2ccccc12`: the melting point was 76 °C.

`CCOC(=O)CC(=O)Cc1ccc(Br)cc1[N+](=O)[O-]`: the melting point was in the range of 78 to 80 °C.

The compound `CC(C)(C)C(=O)OCOC(=O)COc1ccc(Cc2ccc(Cl)cc2)cc1` registered a melting point of 54 to 55 °C.

Turning to `O=C1Nc2ccccc2NC2CCCC12` (stereo not given), the melting point is 191 to 212 °C.

As for `Cc1c(C(=O)Cl)c(C)c2cccc(C)c2c1C`, the melting point was 216 °C.

In the case of `Cc1sc(N)c(C(=O)c2cccc3ccccc23)c1C`, the melting point lay in the range of 195 to 197 °C.

The compound `CN(C)CCNC(=O)c1cc(-c2cccc(Cl)c2)c2cc(C(c3ccc(Cl)cc3)c3cncn3C)ccc2n1` (stereo not given) displayed a melting point of 184 °C.

`COc1cc(CCCCC2OC(=O)NC2=O)ccc1O` (stereo not given) yielded a melting point of 115 to 116 °C.

In the case of `Cc1c(NC(=O)c2ccc(-c3ccc(F)cc3)c(F)c2)ccc2cc(CN3CCCCC3)cnc12`, the melting point lay within 161 to 162 °C.

`COC(=O)c1nc(C)[nH]c1C(=O)OC` showed a melting point of 138 to 140 °C.

Turning to `O=C(Nc1ccc(-n2nc(C(F)(F)F)cc2C(F)(F)F)cc1)c1ccc(F)c(F)c1F`, the melting point is 122 to 124 °C.

In the case of `CS(=O)(=O)c1ccc(-c2cnn(C3CCCC3)c(=O)c2-c2ccc(F)cc2)cc1`, the melting point fell in the range of 191 to 193 °C.

Regarding `COC(=O)CC(NC(=O)c1cccc(OC)c1)c1ccc(OC)c(OC)c1` (stereo not given), the melting point was 124 to 125 °C.

With `O=C(Nc1cccc(S(=O)(=O)C(F)(F)F)c1)c1cnn2c(C(F)(F)F)cc(-c3ccc(C(F)(F)F)cc3)nc12`, the melting point worked out at 207 °C.

In the case of `CCc1ccc2nn(-c3cc(C)ccc3O)nc2c1`, the melting point lay within 91 to 91.5 °C.

For the compound `CCCCCCC(C)(C)c1ccc(C2CC(=O)CC(=O)C2)c(OCc2ccccc2)c1`, the melting point lay in the range of 102 to 103 °C.
